Laboratory results published in PMC6979384, “Characterization of the plant homeodomain (PHD) reader family for their histone tail interactions” (Epigenetics & Chromatin, 2020).
Where no end group is shown, it is not given here. [ ]: non-standard residue; d: D form. pS = N[C@@H](COP(=O)(O)O)C(=O)O

Key:
Assay in all cases: Histone peptide microarray
Assay type in all cases: binding, human
AIRE (PP) = settings: AIRE (PP); for Array Heatmap value (peptide array signal): sheet "Array Heatmap", each array performed twice, total n = 4
Method in brief: (§1)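 GST-PHD reader, 0.5 μM, probed on 293-peptide histone array (single/combinatorial PTMs); optimized array protocol; signal = mean ± SD, n = 4.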

BAZ2B = settings: BAZ2B; for Array Heatmap value (peptide array signal): sheet "Array Heatmap", each array performed twice, total n = 4
Method in brief: as §1

BPTF (PB) = settings: BPTF (PB); for Array Heatmap value (peptide array signal): sheet "Array Heatmap", each array performed twice, total n = 4
Method in brief: as §1

CHD4 (PPCC) = settings: CHD4 (PPCC); for Array Heatmap value (peptide array signal): sheet "Array Heatmap", each array performed twice, total n = 4
Method in brief: as §1

CHD5 (PCC) = settings: CHD5 (PCC); for Array Heatmap value (peptide array signal): sheet "Array Heatmap", each array performed twice, total n = 4
Method in brief: as §1

CHD5 (PPCC) = settings: CHD5 (PPCC); for Array Heatmap value (peptide array signal): sheet "Array Heatmap", each array performed twice, total n = 4
Method in brief: as §1

DIDO1 = settings: for Array Heatmap value (peptide array signal): DIDO1, sheet "Array Heatmap", each array performed twice, total n = 4
Method in brief: as §1

DPF2 (PPC2W2) = settings: DPF2 (PPC2W2); for Array Heatmap value (peptide array signal): sheet "Array Heatmap", each array performed twice, total n = 4
Method in brief: as §1

ING1 = settings: for Array Heatmap value (peptide array signal): ING1, sheet "Array Heatmap", each array performed twice, total n = 4
Method in brief: as §1

ING2 = settings: for Array Heatmap value (peptide array signal): ING2, sheet "Array Heatmap", each array performed twice, total n = 4
Method in brief: as §1

ING3 = settings: for Array Heatmap value (peptide array signal): ING3, sheet "Array Heatmap", each array performed twice, total n = 4
Method in brief: as §1

ING4 = settings: for Array Heatmap value (peptide array signal): ING4, sheet "Array Heatmap", each array performed twice, total n = 4
Method in brief: as §1

ING5 = settings: for Array Heatmap value (peptide array signal): ING5, sheet "Array Heatmap", each array performed twice, total n = 4
Method in brief: as §1

KDM4C (TTP) = settings: KDM4C (TTP); for Array Heatmap value (peptide array signal): sheet "Array Heatmap", each array performed twice, total n = 4
Method in brief: as §1

KDM5A (1) = settings: KDM5A (1); for Array Heatmap value (peptide array signal): sheet "Array Heatmap", each array performed twice, total n = 4
Method in brief: as §1

KDM5A (3) = settings: KDM5A (3); for Array Heatmap value (peptide array signal): sheet "Array Heatmap", each array performed twice, total n = 4
Method in brief: as §1

KDM5B (1) = settings: KDM5B (1); for Array Heatmap value (peptide array signal): sheet "Array Heatmap", each array performed twice, total n = 4
Method in brief: as §1

KDM5B (3) = settings: KDM5B (3); for Array Heatmap value (peptide array signal): sheet "Array Heatmap", each array performed twice, total n = 4
Method in brief: as §1

KDM7A = settings: KDM7A; for Array Heatmap value (peptide array signal): sheet "Array Heatmap", each array performed twice, total n = 4
Method in brief: as §1

MLL5 = settings: for Array Heatmap value (peptide array signal): MLL5, sheet "Array Heatmap", each array performed twice, total n = 4
Method in brief: as §1

MORC3 (CW) = settings: MORC3 (CW); for Array Heatmap value (peptide array signal): sheet "Array Heatmap", each array performed twice, total n = 4
Method in brief: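 Binding read as mean relative signal from 4 replicates; microarray held 293 synthetic histone peptides with single or combinatorial PTMs. Each GST-tagged PHD reader was applied at 0.5 μM using the optimized Petell protocol.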

PHF13 = settings: for Array Heatmap value (peptide array signal): PHF13, sheet "Array Heatmap", each array performed twice, total n = 4
Method in brief: as §1

PHF21A = settings: PHF21A; for Array Heatmap value (peptide array signal): sheet "Array Heatmap", each array performed twice, total n = 4
Method in brief: as §1

PHF23 = settings: for Array Heatmap value (peptide array signal): PHF23, sheet "Array Heatmap", each array performed twice, total n = 4
Method in brief: as §1

PHF2 = settings: for Array Heatmap value (peptide array signal): PHF2, sheet "Array Heatmap", each array performed twice, total n = 4
Method in brief: as §1

PHF8 = settings: for Array Heatmap value (peptide array signal): PHF8, sheet "Array Heatmap", each array performed twice, total n = 4
Method in brief: as §1

PHRF1 (RP) = settings: PHRF1 (RP); for Array Heatmap value (peptide array signal): sheet "Array Heatmap", each array performed twice, total n = 4
Method in brief: as §1

RAG2 = settings: for Array Heatmap value (peptide array signal): RAG2, sheet "Array Heatmap", each array performed twice, total n = 4
Method in brief: as §1

SP140L = settings: SP140L; for Array Heatmap value (peptide array signal): sheet "Array Heatmap", each array performed twice, total n = 4
Method in brief: as §1

TAF3 = settings: for Array Heatmap value (peptide array signal): TAF3, sheet "Array Heatmap", each array performed twice, total n = 4
Method in brief: as §1

TRIM66 (PB) = settings: TRIM66 (PB); for Array Heatmap value (peptide array signal): sheet "Array Heatmap", each array performed twice, total n = 4
Method in brief: as §1

[1] = GST-tagged, arrays performed twice, n of 4

H2AS1p + K5ac + K9ac + K13ac + K15ac: H2A 1-17 ([pS]GRGK(Ac)QGGK(Ac)ARAK(Ac)AK(Ac)TR; UniProt P0C0S8 2-18, looked up, fragment)
Array Heatmap value (peptide array binding signal) (AIRE (PP); [1]): 0.5117
Array Heatmap value (peptide array binding signal) (BAZ2B; [1]): 0.4549
Array Heatmap value (peptide array binding signal) (BPTF (PB); [1]): 0.3406
Array Heatmap value (peptide array binding signal) (CHD4 (PPCC); [1]): 0.5891
Array Heatmap value (peptide array binding signal) (CHD5 (PCC); [1]): 0.7774
Array Heatmap value (peptide array binding signal) (CHD5 (PPCC); [1]): 0.5428
Array Heatmap value (peptide array binding signal) (DIDO1; DIDO1, GST-tagged, arrays performed twice, n of 4): 0.6263
Array Heatmap value (peptide array binding signal) (DPF2 (PPC2W2); [1]): 0.6038
Array Heatmap value (peptide array binding signal) (ING1; ING1, GST-tagged, arrays performed twice, n of 4): 0.5008
Array Heatmap value (peptide array binding signal) (ING2; ING2, GST-tagged, arrays performed twice, n of 4): 0.5905
Array Heatmap value (peptide array binding signal) (ING3; ING3, GST-tagged, arrays performed twice, n of 4): 0.4609
Array Heatmap value (peptide array binding signal) (ING4; ING4, GST-tagged, arrays performed twice, n of 4): 0.4636
Array Heatmap value (peptide array binding signal) (ING5; ING5, GST-tagged, arrays performed twice, n of 4): 0.3496
Array Heatmap value (peptide array binding signal) (KDM4C (TTP); [1]): 0.5241
Array Heatmap value (peptide array binding signal) (KDM5A (1); [1]): 0.482
Array Heatmap value (peptide array binding signal) (KDM5A (3); [1]): 0.391
Array Heatmap value (peptide array binding signal) (KDM5B (1); [1]): 0.6538
Array Heatmap value (peptide array binding signal) (KDM5B (3); [1]): 0.5168
Array Heatmap value (peptide array binding signal) (KDM7A; [1]): 0.4384
Array Heatmap value (peptide array binding signal) (MLL5; MLL5, GST-tagged, arrays performed twice, n of 4): 0.519
Array Heatmap value (peptide array binding signal) (MORC3 (CW); [1]): 0.4032
Array Heatmap value (peptide array binding signal) (PHF13; PHF13, GST-tagged, arrays performed twice, n of 4): 0.6036
Array Heatmap value (peptide array binding signal) (PHF21A; [1]): 0.4797
Array Heatmap value (peptide array binding signal) (PHF23; PHF23, GST-tagged, arrays performed twice, n of 4): 0.5205
Array Heatmap value (peptide array binding signal) (PHF2; PHF2, GST-tagged, arrays performed twice, n of 4): 0.4023
Array Heatmap value (peptide array binding signal) (PHF8; PHF8, GST-tagged, arrays performed twice, n of 4): 0.3673
Array Heatmap value (peptide array binding signal) (PHRF1 (RP); [1]): 0.4027
Array Heatmap value (peptide array binding signal) (RAG2; RAG2, GST-tagged, arrays performed twice, n of 4): 0.2429
Array Heatmap value (peptide array binding signal) (SP140L; [1]): 0.3555
Array Heatmap value (peptide array binding signal) (TAF3; TAF3, GST-tagged, arrays performed twice, n of 4): 0.2828
Array Heatmap value (peptide array binding signal) (TRIM66 (PB); [1]): 0.5729

H4K5proK8proK12pro: H4 1-23
Array Heatmap value (peptide array signal) (AIRE (PP)): 0.5223
Array Heatmap value (peptide array signal) (BAZ2B): 0.5476
Array Heatmap value (peptide array signal) (BPTF (PB)): 0.4022
Array Heatmap value (peptide array signal) (CHD4 (PPCC)): 0.656
Array Heatmap value (peptide array signal) (CHD5 (PCC)): 0.8593
Array Heatmap value (peptide array signal) (CHD5 (PPCC)): 0.65
Array Heatmap value (peptide array signal) (DIDO1): 0.7693
Array Heatmap value (peptide array signal) (DPF2 (PPC2W2)): 0.725
Array Heatmap value (peptide array signal) (ING1): 0.5929
Array Heatmap value (peptide array signal) (ING2): 0.6246
Array Heatmap value (peptide array signal) (ING3): 0.5538
Array Heatmap value (peptide array signal) (ING4): 0.5361
Array Heatmap value (peptide array signal) (ING5): 0.4117
Array Heatmap value (peptide array signal) (KDM4C (TTP)): 0.5585
Array Heatmap value (peptide array signal) (KDM5A (1)): 0.5265
Array Heatmap value (peptide array signal) (KDM5A (3)): 0.4569
Array Heatmap value (peptide array signal) (KDM5B (1)): 0.629
Array Heatmap value (peptide array signal) (KDM5B (3)): 0.4906
Array Heatmap value (peptide array signal) (KDM7A): 0.3949
Array Heatmap value (peptide array signal) (MLL5): 0.612
Array Heatmap value (peptide array signal) (MORC3 (CW)): 0.3861
Array Heatmap value (peptide array signal) (PHF13): 0.7138
Array Heatmap value (peptide array signal) (PHF21A): 0.5432
Array Heatmap value (peptide array signal) (PHF23): 0.5776
Array Heatmap value (peptide array signal) (PHF2): 0.5444
Array Heatmap value (peptide array signal) (PHF8): 0.41
Array Heatmap value (peptide array signal) (PHRF1 (RP)): 0.4879
Array Heatmap value (peptide array signal) (RAG2): 0.2779
Array Heatmap value (peptide array signal) (SP140L): 0.3966
Array Heatmap value (peptide array signal) (TAF3): 0.2924
Array Heatmap value (peptide array signal) (TRIM66 (PB)): 0.6547

H4K20me3 (1-23): H4 1-23
Array Heatmap value (peptide array signal) (AIRE (PP)): 0.4048
Array Heatmap value (peptide array signal) (BAZ2B): 0.4188
Array Heatmap value (peptide array signal) (BPTF (PB)): 0.3468
Array Heatmap value (peptide array signal) (CHD4 (PPCC)): 0.5546
Array Heatmap value (peptide array signal) (CHD5 (PCC)): 0.7553
Array Heatmap value (peptide array signal) (CHD5 (PPCC)): 0.5147
Array Heatmap value (peptide array signal) (DIDO1): 0.6567
Array Heatmap value (peptide array signal) (DPF2 (PPC2W2)): 0.6148
Array Heatmap value (peptide array signal) (ING1): 0.5131
Array Heatmap value (peptide array signal) (ING2): 0.5794
Array Heatmap value (peptide array signal) (ING3): 0.465
Array Heatmap value (peptide array signal) (ING4): 0.4304
Array Heatmap value (peptide array signal) (ING5): 0.3228
Array Heatmap value (peptide array signal) (KDM4C (TTP)): 0.4703
Array Heatmap value (peptide array signal) (KDM5A (1)): 0.4224
Array Heatmap value (peptide array signal) (KDM5A (3)): 0.4449
Array Heatmap value (peptide array signal) (KDM5B (1)): 0.6332
Array Heatmap value (peptide array signal) (KDM5B (3)): 0.4599
Array Heatmap value (peptide array signal) (KDM7A): 0.329
Array Heatmap value (peptide array signal) (MLL5): 0.5073
Array Heatmap value (peptide array signal) (MORC3 (CW)): 0.3692
Array Heatmap value (peptide array signal) (PHF13): 0.5943
Array Heatmap value (peptide array signal) (PHF21A): 0.4514
Array Heatmap value (peptide array signal) (PHF23): 0.5181
Array Heatmap value (peptide array signal) (PHF2): 0.4783
Array Heatmap value (peptide array signal) (PHF8): 0.3429
Array Heatmap value (peptide array signal) (PHRF1 (RP)): 0.4228
Array Heatmap value (peptide array signal) (RAG2): 0.2424
Array Heatmap value (peptide array signal) (SP140L): 0.3602
Array Heatmap value (peptide array signal) (TAF3): 0.2546
Array Heatmap value (peptide array signal) (TRIM66 (PB)): 0.5898
